Consider 1 compound from US9895438B2, “Treatment of cancer with naltrexone” (Cancer Vaccine Institute, priority 2013, dated 2018).

In one experiment the target is T1, TLR9 (Homo sapiens, UniProt Q9NR96).
T1 construct: host or cells: HEK-293
T1 sequence (Q9NR96 26-1032): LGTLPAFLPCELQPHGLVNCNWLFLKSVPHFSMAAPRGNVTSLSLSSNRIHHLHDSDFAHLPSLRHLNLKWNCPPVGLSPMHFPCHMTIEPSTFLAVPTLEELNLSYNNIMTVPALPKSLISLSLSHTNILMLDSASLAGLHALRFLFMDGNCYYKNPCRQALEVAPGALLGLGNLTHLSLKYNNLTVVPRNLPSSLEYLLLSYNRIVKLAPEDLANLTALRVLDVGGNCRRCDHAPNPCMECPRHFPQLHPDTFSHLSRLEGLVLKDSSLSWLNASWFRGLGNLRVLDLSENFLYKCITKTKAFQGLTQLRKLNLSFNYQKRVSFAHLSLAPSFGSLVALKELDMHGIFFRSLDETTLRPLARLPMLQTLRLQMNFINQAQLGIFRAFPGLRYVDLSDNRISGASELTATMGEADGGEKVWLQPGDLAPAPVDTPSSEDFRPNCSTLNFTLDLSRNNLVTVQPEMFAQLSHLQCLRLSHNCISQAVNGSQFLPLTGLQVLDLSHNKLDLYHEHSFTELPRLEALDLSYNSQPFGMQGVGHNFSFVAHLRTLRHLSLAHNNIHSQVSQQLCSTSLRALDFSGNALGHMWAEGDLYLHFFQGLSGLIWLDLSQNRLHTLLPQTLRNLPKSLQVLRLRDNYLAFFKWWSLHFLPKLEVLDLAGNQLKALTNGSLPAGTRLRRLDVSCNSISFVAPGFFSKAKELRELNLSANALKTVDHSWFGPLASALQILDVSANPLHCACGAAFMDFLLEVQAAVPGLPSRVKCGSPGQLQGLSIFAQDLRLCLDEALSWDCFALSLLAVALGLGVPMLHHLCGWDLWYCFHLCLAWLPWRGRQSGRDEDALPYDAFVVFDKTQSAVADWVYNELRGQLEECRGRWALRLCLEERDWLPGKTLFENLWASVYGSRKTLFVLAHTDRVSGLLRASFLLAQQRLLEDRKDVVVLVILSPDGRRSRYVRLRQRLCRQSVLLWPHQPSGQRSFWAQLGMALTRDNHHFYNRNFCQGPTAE
In words: TLR9 antagonist assay, HEK-293 transfectants with alkaline phosphatase reporter gene (Invivogen panel). The experiment is classed as cell-based. As for the experimental part:
(§1) Samples and controls were tested in duplicate on recombinant HEK-293 cell lines expressing the various TLR and NOD receptors with an alkaline phosphatase reporter gene. Cells were incubated with or without 1 μM naltrexone in an antagonist assay using the Invivogen panel of TLR and NOD signalling transfectants. Results shown are for TLR4 and TLR9, TLR activation results are given as optical density (O.D.) values, which have been confirmed in three independent experiments.
(§2) Low dose naltrexone (LDN) was tested in agonist and antagonist assays on a panel of TLR and NOD transfectants (TLR2, TLR3, TLR4, TLR5, TLR7, TLR8, TLR9, NOD1, NOD2). Screening assays were performed by Cayla-Invivogen (Toulouse, France).
Background: In a reporter assay the amount or activity of a reporter protein is the signal.

Experiment [1] addresses T2, TLR4 (Homo sapiens, UniProt O00206+Q9Y6Y9).
T2 construct: host or cells: HEK-293
As to the kind of experiment: TLR4 antagonist assay, HEK-293 transfectants with alkaline phosphatase reporter gene (Invivogen panel). The experiment is classed as cell-based. The note with it: 1 μM naltrexone, O.D. readout (FIG. 1). As for the experimental part:
as §1, §2

Experiment [2] relates to TLR2, TLR3, TLR4, TLR5, TLR7, TLR8, TLR9, NOD1, NOD2. In words: Agonist assays on panel of TLR and NOD transfectants. The experiment is classed as cell-based. The note with it: TLR2, 3, 4, 5, 7, 8, 9, NOD1, NOD2. As for the experimental part: as §1, §2
The subject of experiment [3] is hormone-refractory prostate cancer. In words: Patient with hormone-refractory prostate cancer treated with Mycobacterium vaccae plus LDN. The experiment is classed as in vivo, human. To be noted: one patient, LDN added to Mycobacterium vaccae treatment.
In experiment [4] the target is T2, TLR4. The note with it: Hutchinson et al. (2008); cited from earlier work.
For the next experiment, the system named is metastatic melanoma. As to the kind of experiment: Patient with chemotherapy-resistant metastatic melanoma treated with LDN.

Entries after “also recorded” stand apart in the source; their conditions may differ. Read-outs that look alike come from different tables or passages of the source. Some results are limits rather than exact numbers.

T2 sequence (O00206 24-839, species assumed): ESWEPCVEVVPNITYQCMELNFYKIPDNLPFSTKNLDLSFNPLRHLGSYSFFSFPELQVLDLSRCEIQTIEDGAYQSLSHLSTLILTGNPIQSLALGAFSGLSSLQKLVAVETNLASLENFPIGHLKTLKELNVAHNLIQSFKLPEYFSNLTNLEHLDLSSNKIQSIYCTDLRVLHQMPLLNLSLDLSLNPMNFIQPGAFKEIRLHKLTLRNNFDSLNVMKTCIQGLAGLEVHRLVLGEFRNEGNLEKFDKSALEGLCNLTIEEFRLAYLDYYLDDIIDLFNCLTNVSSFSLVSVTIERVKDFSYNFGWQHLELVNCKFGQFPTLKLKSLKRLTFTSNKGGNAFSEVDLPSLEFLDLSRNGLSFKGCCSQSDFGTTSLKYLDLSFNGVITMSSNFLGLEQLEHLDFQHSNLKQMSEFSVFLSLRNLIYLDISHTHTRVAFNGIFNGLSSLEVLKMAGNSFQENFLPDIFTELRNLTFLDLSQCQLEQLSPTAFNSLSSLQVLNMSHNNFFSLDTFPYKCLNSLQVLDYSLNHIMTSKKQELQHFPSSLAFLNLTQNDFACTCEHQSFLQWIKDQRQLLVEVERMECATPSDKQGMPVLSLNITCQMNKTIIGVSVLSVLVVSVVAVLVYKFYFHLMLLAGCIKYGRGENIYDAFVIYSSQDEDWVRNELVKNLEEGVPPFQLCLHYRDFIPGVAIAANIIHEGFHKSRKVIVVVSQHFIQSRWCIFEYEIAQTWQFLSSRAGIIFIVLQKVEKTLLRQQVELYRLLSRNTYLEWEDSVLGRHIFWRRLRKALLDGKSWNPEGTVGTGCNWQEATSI
T2 sequence (Q9Y6Y9 17-160 limits assumed, species assumed): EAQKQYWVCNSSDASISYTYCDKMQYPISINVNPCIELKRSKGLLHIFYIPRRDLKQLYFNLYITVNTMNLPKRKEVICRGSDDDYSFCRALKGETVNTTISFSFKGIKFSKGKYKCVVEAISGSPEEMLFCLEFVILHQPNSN

Broadly, the IC50 is the point on the concentration scale where inhibition reaches its midpoint. Consider `O=C1CC[C@@]2(O)[C@H]3Cc4ccc(O)c5c4[C@@]2(CCN3CC2CC2)[C@H]1O5` [LDN, morphinan-6-one,17-(cyclopropylmethyl)-4,5-epoxy-3,14-dihydroxy-(5α)], for which, at TLR9 (antagonist assay, 1 μM naltrexone, O.D. readout (FIG. 1)), the “antagonism of TLR9 (recognition of CpG DNA)” value was “striking antagonistic effect; also recorded: inhibited recognition of CpG DNA”. Also, at TLR9 (titration, TLR9-transfected cell line, naltrexone diluted in PBS or H2O (FIG. 2), read-out: IC50 for inhibition of TLR9), the IC50 was approximately 50 µM. The “antagonism of TLR4” value is “mild antagonistic effect; also recorded: mild antagonist effect” on TLR4 [1] and “weakly antagonise TLR4” at TLR4 [4]. For the same compound, in experiment [2], the “stimulation of signalling (agonism) through TLR and NOD receptors” value is on record as “did not stimulate signalling through any of the receptors tested”. For the same compound, the prostate-specific antigen levels result in experiment [3] is on record as “drop in prostate-specific antigen levels”. Moreover, the “time to development of vitiligo” value in the experiment with metastatic melanoma (after administration of low dose naltrexone) was not above 48 h. Also, in the experiment on metastatic melanoma (one patient previously given vaccine and radiotherapy, LDN as supportive treatment prior to more radiotherapy), the “development of vitiligo (sign of activated cytotoxic T cells against melanoma antigens)” value is “marked vitiligo”.
